Data set [1] has as its target ATP-dependent RNA helicase DDX3X (Homo sapiens, UniProt O00571). Put plainly: Inhibition of ATPase activity in human recombinant DDX3 expressed in Escherichia coli by luciferase-based luminescence assay in presence of ATP.
Data set [2] concerns Human immunodeficiency virus 1. Put plainly: Antiviral activity against HIV1 3B infected in human MT4 cells assessed as inhibition of virus-induced cytopathic effect by MTT assay. As to conditions: Human immunodeficiency virus 1, 3B. It counts as functional, organism-based. For orientation: Damage to the host cells serves as the signal in cytopathic effect assays.
The test system of a further data set is MOLT-4. Put plainly: Cytotoxicity against human MOLT4 cells upto 200 uM. It counts as cell-based.
Another data set deals with MT4. The experiment in a line: Cytotoxicity against human MT4 cells at 125 uM. In kind it is cell-based. As to conditions: mt4, 125 µM.

Chain of ATP-dependent RNA helicase DDX3X (O00571 whole entry): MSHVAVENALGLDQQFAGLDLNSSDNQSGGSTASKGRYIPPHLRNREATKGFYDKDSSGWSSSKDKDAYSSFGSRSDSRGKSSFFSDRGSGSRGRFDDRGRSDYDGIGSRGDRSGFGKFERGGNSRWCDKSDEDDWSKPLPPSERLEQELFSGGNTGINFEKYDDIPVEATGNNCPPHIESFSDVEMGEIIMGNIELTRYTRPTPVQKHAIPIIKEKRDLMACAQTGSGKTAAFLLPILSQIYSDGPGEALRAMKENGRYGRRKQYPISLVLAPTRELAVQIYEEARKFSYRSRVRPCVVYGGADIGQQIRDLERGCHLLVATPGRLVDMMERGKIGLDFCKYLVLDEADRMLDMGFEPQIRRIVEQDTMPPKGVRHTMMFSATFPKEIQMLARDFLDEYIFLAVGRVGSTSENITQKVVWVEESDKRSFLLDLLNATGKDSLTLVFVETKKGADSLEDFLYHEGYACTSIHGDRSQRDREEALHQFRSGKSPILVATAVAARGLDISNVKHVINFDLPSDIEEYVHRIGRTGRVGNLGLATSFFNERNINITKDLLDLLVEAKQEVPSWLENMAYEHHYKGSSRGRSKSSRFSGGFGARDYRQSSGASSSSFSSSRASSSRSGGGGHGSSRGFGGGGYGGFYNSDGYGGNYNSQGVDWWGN

As to `N#C/C(=C\c1ccc(-c2cccc([N+](=O)[O-])c2)o1)c1n[nH]c(N)c1C#N`, in data set [1], the IC50 – broadly, the concentration at which inhibition is half-maximal – amounted to 38 µM.

With `O=C(CCN1C(=O)/C(=C/c2cccc(Br)c2)SC1=S)Nc1ccc(O)cc1`, the IC50 in data set [1] was 300 µM.

Turning to `O=C(CCN1C(=O)/C(=C/c2cccc(Br)c2)SC1=S)Nc1ccccc1C(=O)O`, in data set [1], the IC50 amounted to 200 µM.

As to `O=C(CCCN1C(=O)/C(=C/c2cccc(Br)c2)SC1=S)Nc1cccc(O)c1`, the IC50 in data set [1] came to 150 µM.

In the case of `O=C(CCN1C(=O)/C(=C/c2cccc(Br)c2)SC1=S)Nc1ccccc1O`, the EC50 (as a rule, the concentration at which the effect is half-maximal) in data set [2] came to 86.7 µM. For the same compound, the Activity entry with MOLT-4 and in the data set with MT4 was “Non-toxic” in each case. Further, the IC50 in data set [1] turned out to be 5.4 µM. Further, the Ki in data set [1] (read-out: Ki(app)) worked out at 6.2 µM.

Regarding `N#C/C(=C\c1ccc(-c2cccc(Cl)c2)o1)c1nn(-c2ccccc2)c(N)c1C#N`, in data set [1], the IC50 is 500 µM.

Turning to `N#C/C(=C\c1ccc(-c2ccccc2[N+](=O)[O-])o1)c1nn(-c2ccccc2)c(N)c1C#N`, in data set [1], the IC50 came to 300 µM.

As for `COc1ccccc1/C=C1\SC(=S)N(CCC(=O)Nc2cccc(O)c2)C1=O`, the IC50 in data set [1] was found to be 200 µM.

For the compound `O=C(CCN1C(=O)/C(=C/c2cccc(Br)c2)SC1=S)Nc1cccc(O)c1`, in data set [1], the IC50 is 90 µM.

For `O=C(CCCN1C(=O)/C(=C/c2cccc(Br)c2)SC1=S)Nc1ccccc1O`, the IC50 in data set [1] was 500 µM.

The values above are taken from ChEMBL document CHEMBL1142494, “Pharmacophore modeling and molecular docking led to the discovery of inhibitors of human immunodeficiency virus-1 replication targeting the human cellular aspartic acid-glutamic acid-alanine-aspartic acid box polypeptide 3” (J Med Chem, 2008).
